Results as given in publication PMC3530165 (Chemistry & biology, 2012).
Like-named read-outs stand apart in the source and are kept apart here.

Biological target: C619A GlcB (malate synthase) (Mycobacterium tuberculosis, UniProt P9WK17, C619A)

Q: O=C(O)C(=O)CC(=O)c1ccccc1F [Compound 2] was tested. Which IC50 did it give?
A: The IC50 was 0.24 µM.

Q: For O=C(O)C(=O)CC(=O)c1ccccc1Cl [Compound 3], which IC50 is on record?
A: The IC50 was 0.5 µM.

Q: How did the IC50 turn out when O=C(O)C(=O)CC(=O)c1cccc(Cl)c1 [Compound 6] was run?
A: Its IC50 is 0.17 µM.

Q: What does the source list for Cc1ccc(C(=O)CC(=O)C(=O)O)cc1 [Compound 8]?
A: IC50: 6 µM; IC50 (read-out: IC50 against GlcB): 5.7 µM

Q: What does the source list for O=C(O)C(=O)CC(=O)c1ccc(Br)cc1 [Compound 9]?
A: IC50: 5.7 µM; IC50 (read-out: IC50 against GlcB): 6 µM
